Consider two molecules from patent publication US20220000941A1, “MINERAL ELEMENTS COMPRISING HAFNIA ALVEI COMPOSITIONS” (TARGEDYS, priority 2019, published 2022).

In assay [1] the test system is Hafnia alvei 4597. The assay is described as follows: Flow cytometry of cell integrity (propidium iodide and Syto 24), intact cells. Type of assay: cell-based. The note with it: zinc comprising media, flow cytometry at 24 h. The text has this:
Samples of the culture media 1-6 were further assessed for the cell integrity by means of flow cytometry using as markers propidium iodide and Syto® 24. The flow cytometry measured the number of intact cells opposed to the population of cells whose cellular membrane integrity had been compromised.
(§1) The development of Hafnia alvei in this new medium was monitored by optical densitometry and flow cytometry. LB medium with no added zinc or chrome was used as a control.
A general note: A flow cytometer gives signals particle by particle.

Assay [2] deals with Hafnia alvei 4597. The experiment in a line: Turbidity of Hafnia alvei culture media by optical densitometry (OD at 640 nm). The assay is classed as cell-based. The note with it: mineral source in LB medium, monitored during 48 hours. How it is done: The concentration of the minerals were based on their estimated concentration in […] (typical glass of water). However, in view of observing the Hafnia alvei strain development, the zinc and chrome sources were solubilized in a Luria Browth medium (LB). The composition of LB is as follows: Tryptone 10 g/L, yeast extract 5 g/L (Biokar Diagnostic®) and NaCl 0.5 g/L (Fluka®).
Hafnia alvei 4597 was incubated with Test medial-6 of example 1 and the turbidity of the culture media was monitored during 48 hours by means of optical densitometry (OD at 640 nm).
as §1

On to `NCC(=O)[O-].NCC(=O)[O-].[Zn+2]` [Zinc bisglycinate, zinc; 2-aminoacetate], for which the “development inhibition compared to the control medium” value with Hafnia alvei 4597 [1] was “no significant development inhibition”. `O=C([O-])c1ccccn1.O=C([O-])c1ccccn1.O=C([O-])c1ccccn1.[Cr+3]` [Chromium picolinate, chromium (3+); pyridine-2-carboxylate]: the “turbidity of the culture medium (OD at 640 nm) compared to control (LB) medium” value in the assay on Hafnia alvei 4597 [2] is recorded as “same turbidity as the control”.
